Results on 3 compounds are retold here after patent publication US11465974B2, “Crystalline polymorphs of Pracinostat and Pracinostat salts” (ASSIA CHEMICAL INDUSTRIES LTD., priority 2017, dated 2022).

Where a name gives a salt, the structure may show the parent alone.

What all share (assay type): physicochemical
One series in a line: Thermal stability test. The settings on record: heated to 100° C. for 30 minutes at open dish. As for the experimental part: Thermal stability test: The tested sample was heated to temperature of 100° C. for 30 minutes at open dish.
Series [1] can be described thus: Physical pressure stability test. The settings on record: 3 ton pressure for 1 minute at room temperature. As for the experimental part:
Physical pressure stability test: The tested sample was exposed to 3 ton pressure for 1 minute at room temperature.

Series [2] is described as follows: Hygroscopicity (absorption of water, determined for example by TGA). An excerpt: As used herein the term non-hygroscopic in relation to crystalline forms of Pracinostat refers to less than 0.2% (w/w) absorption of water, by the crystalline form of Pracinostat, as determined for example by TGA. Water can be for example atmospheric water.
Another series is described as follows: Grinding stability test. Conditions: ground by mortar and pestle for 1 minute at room temperature, without solvent or with one drop of ethanol, isopropyl alcohol or water. The procedure:
Grinding stability test: The tested sample was grinded by moltal&pestle for 1 minute at room temperature either without a solvent or with one drop of solvent from the following solvents: Ethanol, Isopropyl alcohol and water.

Series [3] can be described thus: Polymorphic stability at relative humidity 0% to 100%. Conditions: RH of from 0% to 100%, room temperature.

Consider `CCCCc1nc2cc(/C=C/C(=O)NO)ccc2n1CCN(CC)CC` [Form P7, (E)-3-[2-Butyl-1-[2-(diethylamino)ethyl]-1H-benzo[d]imidazol-5-yl]-N-hydroxy-acrylamide], for which, in the series “Thermal stability test”, the “stability under thermal test” value is listed as “stable”. Further, in series [1], the “stability under physical pressure” value is reported as “stable”. For the same compound, the “absorption of water (hygroscopicity)” value in series [2] is “less than 0.2 % (w/w)”. For the same compound, the stability under grinding entry in the series “Grinding stability test” was “stable”. Also, the “period of polymorphic stability” value in series [3] is on record as “at least 7 days”.

On to `CCCCc1nc2cc(/C=C/C(=O)NO)ccc2n1CCN(CC)CC` [Pracinostat sulfate Form S1], for which the “stability under thermal test” value in the series “Thermal stability test” is “stable”. In addition, the “stability under physical pressure” value in series [1] is on record as “stable”. In addition, the “absorption of water (hygroscopicity)” value in series [2] is “less than 2 % (w/w)”. In addition, in the series “Grinding stability test”, the stability under grinding result was “stable”. For the same compound, the “period of polymorphic stability” value in series [3] is given as “at least 7 days”.

For the compound `CCCCc1nc2cc(/C=C/C(=O)NO)ccc2n1CCN(CC)CC` [Form P3, (E)-3-[2-Butyl-1-[2-(diethylamino)ethyl]-1H-benzo[d]imidazol-5-yl]-N-hydroxy-acrylamide], the “stability under thermal test” value in the series “Thermal stability test” was “stable”. In addition, in series [1], the “stability under physical pressure” value is listed as “stable”. Further, the “absorption of water (hygroscopicity)” value in series [2] was “less than 0.2 % (w/w)”. The stability under grinding result in “Grinding stability test” is “stable”. Also, the “period of polymorphic stability” value in series [3] was “at least 7 days”.
